This is an account of results in ChEMBL document CHEMBL3045102, “Antibacterial, antifungal and antioxidant activity of some new water-soluble -diketones” (2013).

Common to all, as to type: functional
One assay has as its system Nakaseomyces glabratus. Kind of assay: Antifungal activity against Candida glabrata ATCC 36583 after 48 hr by turbidity based microplate metohd. The settings on record: ATCC 36583, 48 h.
Another assay has as its system Staphylococcus aureus. Kind of assay: Antibacterial activity against Staphylococcus aureus ATCC 25923 after 24 hr by spectrophotometric method. The settings on record: ATCC 25923, 24 h.
Another assay has as its system Candida albicans. Kind of assay: Antifungal activity against Candida albicans ATCC 10231 after 48 hr by turbidity based microplate metohd. The settings on record: ATCC 10231, 48 h.
A further assay concerns Bacillus subtilis. Kind of assay: Antibacterial activity against Bacillus subtilis ATCC 6633 after 24 hr by spectrophotometric method. The settings on record: ATCC 6633, 24 h.
For another assay, the system named is Escherichia coli. In words: Antibacterial activity against Escherichia coli ATCC 25922 after 24 hr by spectrophotometric method. The settings on record: ATCC 25922, 24 h.
For a further assay, the system named is Pseudomonas aeruginosa. Kind of assay: Antibacterial activity against Pseudomonas aeruginosa ATCC 27853 after 24 hr by sepctrophotometric method. The settings on record: ATCC 27853, 24 h.
Assay [1] has as its system Radical scavenging activity. Kind of assay: Antioxidant activity assessed as decrease in DPPH free radical level after 20 min by DPPH assay method. Also noted: concentration or dose not given beside the values. For orientation: Loss of DPPH colour is used to gauge radical scavenging.

Molecules are shown by their SMILES. ≈ marks a conversion by molar mass, not a printed value.

Turning to `O=C(CC(=O)c1ccc(O[C@@H]2O[C@H](CO)[C@@H](O)[C@H](O)[C@H]2O)cc1O)c1cccnc1`, the minimum inhibitory concentration (MIC) (as a rule, the lowest concentration that inhibits growth of the organism) was determined as 5000 µg/mL (≈ 11900 µM) with Nakaseomyces glabratus; 150 µg/mL (≈ 358 µM) in the assay with Staphylococcus aureus; 10000 µg/mL (≈ 23800 µM) in the assay on Candida albicans; 625 µg/mL (≈ 1490 µM) in the assay with Bacillus subtilis; 300 µg/mL (≈ 715 µM) in the assay on Escherichia coli; 1250 µg/mL (≈ 2980 µM) with Pseudomonas aeruginosa. In assay [1], the inhibition (in general, how much of the control response was suppressed) is 74.2%.

For `O=C(CC(=O)c1cc(Cl)c(O[C@@H]2O[C@H](CO)[C@@H](O)[C@H](O)[C@H]2O)cc1O)c1cccs1`, the minimal inhibitory concentration (MIC) with Nakaseomyces glabratus is 150 µg/mL (≈ 327 µM); against Staphylococcus aureus, 300 µg/mL (≈ 654 µM); in the assay with Candida albicans, 5000 µg/mL (≈ 10900 µM); in the assay on Bacillus subtilis it was 625 µg/mL (≈ 1360 µM); against Escherichia coli, 5000 µg/mL (≈ 10900 µM); against Pseudomonas aeruginosa it was 30 µg/mL (≈ 65.4 µM). The inhibition in assay [1] turned out to be 81.2%.

For `O=C(CC(=O)c1ccc(O[C@@H]2O[C@H](CO)[C@@H](O)[C@H](O)[C@H]2O)cc1O)c1ccco1`, the MIC against Nakaseomyces glabratus was 5000 µg/mL (≈ 12200 µM); with Staphylococcus aureus, 625 µg/mL (≈ 1530 µM); in the assay on Candida albicans it was 5000 µg/mL (≈ 12200 µM); with Bacillus subtilis, 150 µg/mL (≈ 367 µM); in the assay with Escherichia coli it was 2500 µg/mL (≈ 6120 µM); against Pseudomonas aeruginosa, 5000 µg/mL (≈ 12200 µM). The inhibition in assay [1] was determined as 84.3%.

For the compound `O=C(CC(=O)c1cc(Cl)c(O[C@@H]2O[C@H](CO)[C@@H](O)[C@H](O)[C@H]2O)cc1O)c1ccccn1`, the MIC amounted to 2500 µg/mL (≈ 5510 µM) in the assay with Nakaseomyces glabratus; 150 µg/mL (≈ 331 µM) with Staphylococcus aureus; 150 µg/mL (≈ 331 µM) in the assay with Candida albicans; 1250 µg/mL (≈ 2750 µM) in the assay on Bacillus subtilis; 19 µg/mL (≈ 41.9 µM) with Escherichia coli; 19 µg/mL (≈ 41.9 µM) in the assay with Pseudomonas aeruginosa. For the same compound, in assay [1], the inhibition is 85.5%.

Regarding `O=C(CC(=O)c1cc(Cl)c(O[C@@H]2O[C@H](CO)[C@@H](O)[C@H](O)[C@H]2O)cc1O)c1ccco1`, the MIC in the assay on Nakaseomyces glabratus stood at 5000 µg/mL (≈ 11300 µM); against Staphylococcus aureus, 150 µg/mL (≈ 339 µM); with Candida albicans it was 2500 µg/mL (≈ 5650 µM); in the assay on Bacillus subtilis it was 300 µg/mL (≈ 678 µM); with Escherichia coli, 70 µg/mL (≈ 158 µM); in the assay on Pseudomonas aeruginosa, 19 µg/mL (≈ 42.9 µM). Further, the inhibition in assay [1] was 77%.

As to `O=C(CC(=O)c1cc(Cl)c(O[C@@H]2O[C@H](CO)[C@@H](O)[C@H](O)[C@H]2O)cc1O)c1cccnc1`, the MIC against Nakaseomyces glabratus came out at 10000 µg/mL (≈ 22000 µM); in the assay with Staphylococcus aureus, 5000 µg/mL (≈ 11000 µM); with Candida albicans, 10000 µg/mL (≈ 22000 µM); against Bacillus subtilis it was 300 µg/mL (≈ 661 µM); with Escherichia coli, 5000 µg/mL (≈ 11000 µM); with Pseudomonas aeruginosa it was 5000 µg/mL (≈ 11000 µM). The inhibition in assay [1] is 79.5%.

Regarding `OC(Cn1cncn1)(Cn1cncn1)c1ccc(F)cc1F` [FLUCONAZOLE], the MIC in the assay with Nakaseomyces glabratus and against Candida albicans was 10 µg/mL (≈ 32.7 µM) in each case.

With `O=C(CC(=O)c1ccc(O[C@@H]2O[C@H](CO)[C@@H](O)[C@H](O)[C@H]2O)cc1O)c1cccs1`, the MIC with Nakaseomyces glabratus was 5000 µg/mL (≈ 11800 µM); against Staphylococcus aureus, 300 µg/mL (≈ 707 µM); with Candida albicans, 2500 µg/mL (≈ 5890 µM); in the assay on Bacillus subtilis, 150 µg/mL (≈ 353 µM); in the assay on Escherichia coli, 1250 µg/mL (≈ 2950 µM); with Pseudomonas aeruginosa it was 150 µg/mL (≈ 353 µM). The inhibition in assay [1] was found to be 74.2%.

On to `O=C(CC(=O)c1ccc(O[C@@H]2O[C@H](CO)[C@@H](O)[C@H](O)[C@H]2O)cc1O)c1ccccn1`, for which the MIC worked out at 5000 µg/mL (≈ 11900 µM) in the assay on Nakaseomyces glabratus; 150 µg/mL (≈ 358 µM) with Staphylococcus aureus; 2500 µg/mL (≈ 5960 µM) with Candida albicans; 300 µg/mL (≈ 715 µM) with Bacillus subtilis; 70 µg/mL (≈ 167 µM) with Escherichia coli; 19 µg/mL (≈ 45.3 µM) against Pseudomonas aeruginosa. In addition, in assay [1], the inhibition came out at 79%.

Turning to `CC1(C)S[C@@H]2[C@H](NC(=O)[C@H](N)c3ccccc3)C(=O)N2[C@H]1C(=O)O` [AMPICILLIN], the MIC stood at 19 µg/mL (≈ 54.4 µM) with Staphylococcus aureus, 5 µg/mL (≈ 14.3 µM) in the assay on Bacillus subtilis, 10 µg/mL (≈ 28.6 µM) with Escherichia coli and 5 µg/mL (≈ 14.3 µM) against Pseudomonas aeruginosa.

As to `O=C1O[C@H]([C@@H](O)CO)C(O)=C1O`, in assay [1], the inhibition turned out to be 98%.
